Literature values in patent publication US20060034872A1, “Compositions and methods for preventing abuse of orally administered medications” (priority 2002, published 2006).

Experiments:
[1] = repeated intravesical instillation, 1-2 mM, over five years
VR1 receptors = target: T1, VR1 receptors (Homo sapiens, UniProt Q8NER1)
T1 construct: selective stimulation of the VR1 receptors of nociceptive afferent neurons; from tissue; host or cells: nociceptive afferent neurons in vivo (skin, oral/nasal mucosa, airways, paravenous tissue)
T1 sequence (Q8NER1 whole entry): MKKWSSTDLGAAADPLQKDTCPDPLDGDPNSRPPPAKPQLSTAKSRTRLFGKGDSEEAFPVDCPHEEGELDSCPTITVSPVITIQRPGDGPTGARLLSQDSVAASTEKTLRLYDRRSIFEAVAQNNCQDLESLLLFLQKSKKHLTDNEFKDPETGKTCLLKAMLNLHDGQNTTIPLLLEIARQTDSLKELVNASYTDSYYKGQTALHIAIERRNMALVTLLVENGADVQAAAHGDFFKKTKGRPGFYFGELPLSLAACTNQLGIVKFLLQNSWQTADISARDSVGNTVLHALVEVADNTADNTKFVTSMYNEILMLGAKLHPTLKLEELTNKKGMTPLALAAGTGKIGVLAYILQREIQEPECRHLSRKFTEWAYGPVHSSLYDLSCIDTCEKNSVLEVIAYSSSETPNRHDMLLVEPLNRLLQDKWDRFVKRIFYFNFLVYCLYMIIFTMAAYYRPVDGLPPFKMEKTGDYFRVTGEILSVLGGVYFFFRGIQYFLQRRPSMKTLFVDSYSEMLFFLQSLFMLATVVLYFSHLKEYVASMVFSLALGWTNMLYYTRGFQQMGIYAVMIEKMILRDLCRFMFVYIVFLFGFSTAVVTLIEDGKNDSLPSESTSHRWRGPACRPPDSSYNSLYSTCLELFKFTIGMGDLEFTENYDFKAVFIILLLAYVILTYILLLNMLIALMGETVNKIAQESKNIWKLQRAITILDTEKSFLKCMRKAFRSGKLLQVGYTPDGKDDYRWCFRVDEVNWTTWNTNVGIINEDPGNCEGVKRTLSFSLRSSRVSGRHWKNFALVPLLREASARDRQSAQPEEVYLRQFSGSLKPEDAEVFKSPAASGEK

[2] = target: T2, VR1 receptors of nociceptive afferent neurons (Homo sapiens, UniProt Q8NER1); conditions: ingestion; as little as
T2 construct: selective stimulation of the VR1 receptors of nociceptive afferent neurons; from tissue; host or cells: nociceptive afferent neurons in vivo (skin, oral/nasal mucosa, airways, paravenous tissue)
T2 sequence (Q8NER1 whole entry): as above

[3] = long term intranasal, 0.15 mg per nostril every 2-3 days, total dose 1.05 mg
[4] = target: T2, VR1 receptors of nociceptive afferent neurons; conditions: for sensation elicited by application: applied to skin, oral or nasal mucosa, or subdermal tissue
[5] = target: T2, VR1 receptors of nociceptive afferent neurons; conditions: nasal instillation
peripheral VR1 receptors = target: T3, peripheral VR1 receptors (Homo sapiens, UniProt Q8NER1)
T3 construct: from tissue
T3 sequence (Q8NER1 whole entry): as above

bronchial VR1 = target: T4, bronchial VR1 (Homo sapiens, UniProt Q8NER1); conditions: inhaled, 10^−3-10^−8M solutions
T4 construct: selective stimulation of the VR1 receptors of nociceptive afferent neurons; from tissue; host or cells: nociceptive afferent neurons in vivo (skin, oral/nasal mucosa, airways, paravenous tissue)
T4 sequence (Q8NER1 whole entry): as above

[6] = not given; remark: listed apart in the source

Structure (SMILES): COc1cc(CNC(=O)CCCC/C=C/C(C)C)ccc1O [capsaicin]
- pathological tissue changes [1]: did not result in pathological tissue changes
- pain when injected directly into a vein (VR1 receptors; injected directly into a vein, up to 650 μM): does not cause pain
- pain when injected intradermally (VR1 receptors; intradermal injection): very severe pain
- low capsaicin doses to which paravenous tissue is highly sensitive (VR1 receptors; paravenous tissue): 0.3 to 6.5 µM
- amount ingested after which tongue and throat irritation occurs [2]: 3 ppm
- histological abnormalities [3]: no histological abnormalities
- sensation elicited by application [4]: burning pain
- sensation following application of dermal cream ([4]; dermal cream containing 0.075% capsaicin): burning pain sensation
- amount instilled giving nasal irritation and rhinorrhea [5]: 75 to 150 µg
- maximum tolerated dose (MTD) (peripheral VR1 receptors; humans): approximately 4 μg/kg
- dose producing raw, burning sensation in chest, face, rectum and extremities (peripheral VR1 receptors; injection directly into the superior vena cava): > 0.5 µg/kg
- immediate effect of inhalation (bronchial VR1): sneezing, coughing, and airway constriction
- absorption from the gastrointestinal tract (oral administration): readily absorbed
- metabolism in the liver (oral administration): almost completely metabolized

Structure (SMILES): CCCCCCCC/C=C\CCCCCCCC(=O)NCc1ccc(O)c(OC)c1 [olvanil]
- first pass metabolism (in vivo): subject to first pass metabolism

Structure (SMILES): COc1ccc2c3c1O[C@H]1C(=O)CC[C@@]4(O)[C@@H](C2)N(C)CC[C@]314 [oxycodone]
- biological and therapeutic half-lives ([6]; in vivo): very short
- bioavailability ([6]; oral and intranasal administration): high

Structure (SMILES): C=C(C)[C@]12C[C@@H](C)[C@@]34O[C@](Cc5ccccc5)(O[C@@H]1[C@@H]3C=C(COC(=O)Cc1ccc(O)c(OC)c1)C[C@]1(O)C(=O)C(C)=C[C@@H]41)O2 [resiniferatoxin]
- sensation elicited by application [4]: burning pain
